Laboratory results: the supplement of paper PMC10307832

What was measured:
Assay in all cases: relative viability (nuclei count vs DMSO), 5 days (fraction); higher = more cells survive
[1] = compound: CC1(C)CNc2cc(NC(=O)c3cccnc3NCc3ccncc3)ccc21 [Motesanib] + COc1cccc2cc(-c3nc([C@H]4CC[C@H](C(=O)O)CC4)n4ncnc(N)c34)[nH]c12 [OSI-027] (partner 0.5 µM)
Summary of the method: (§1)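 Relative viability divides the nuclei count in treated wells by that in vehicle wells. Lung cancer cell lines were seeded in 1536-well plates, dosed by pin tool the next day, and fixed and stained after 5 days in one step with final 0.05% Triton X-100, 1% formaldehyde and 1 ug/ml Hoechst. Dosing was a single drug or a fixed anchor-drug dose plus five library-drug doses (not always all listed) in √10 steps, and values are medians of duplicate plates imaged at 4×.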

[2] = compound: C[C@@]1(C(=O)Nc2ccc(F)nc2)CCCN1c1nc(Nc2cc(C3CC3)n[nH]2)c2cccn2n1 + CCNC(=O)c1noc(-c2cc(C(C)C)c(O)cc2O)c1-c1ccc(CN2CCOCC2)cc1 [Luminespib] (partner 0.01 µM)
Summary of the method: as §1

[3] = compound: CC1(C)CNc2cc(NC(=O)c3cccnc3NCc3ccncc3)ccc21 [Motesanib] + N=C(N)NC(=N)NCCc1ccccc1 [Phenformin] (partner 250 µM)
Summary of the method: as §1

[4] = compound: CC1(C)CNc2cc(NC(=O)c3cccnc3NCc3ccncc3)ccc21 [Motesanib] + O=C(c1cc(Cc2n[nH]c(=O)c3ccccc23)ccc1F)N1CCN(C(=O)C2CC2)CC1 [Olaparib] (partner 8 µM)
Summary of the method: as §1

Work on UMC-11 yielded a relative viability ([1]; first compound 0.01 µM) of 0.461, a relative viability ([1]; first compound 0.03162 µM) of 0.466 and a relative viability ([1]; first compound 0.1 µM) of 0.38. The relative viability ([1]; first compound 0.3162 µM) was 0.503, the relative viability ([1]; first compound 1 µM) was 0.51 and the relative viability ([2]; first compound 0.04 µM) was 0.94. For the same cell line, the relative viability ([2]; first compound 0.1265 µM) was 1.01, the relative viability ([2]; first compound 0.4 µM) was 0.968 and the relative viability ([2]; first compound 1.265 µM) was 0.726. For the same cell line, the relative viability ([3]; first compound 0.01 µM) was 0.29, the relative viability ([3]; first compound 0.03162 µM) was 0.33 and the relative viability ([3]; first compound 0.1 µM) was 0.324. It also gave a relative viability ([3]; first compound 0.3162 µM) of 0.33, a relative viability ([3]; first compound 1 µM) of 0.345 and a relative viability ([4]; first compound 0.01 µM) of 0.395. It also gave a relative viability ([4]; first compound 0.03162 µM) of 0.356, a relative viability ([4]; first compound 0.1 µM) of 0.367 and a relative viability ([4]; first compound 0.3162 µM) of 0.378. It also gave a relative viability ([4]; first compound 1 µM) of 0.34.
